Test results from PubChem BioAssay (NCI).
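Dose response: 5 concentrations. Exposure: 48 h. Format: 96-well plates. Endpoint: linear interpolation; highest concentration if not reached. TGI: concentration producing complete growth inhibition.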

What was measured:
Assay in all cases: DTP human tumour cell line panel, 48 h
DU-145 prostate = tested on: DU-145 prostate
MOLT-4 leukemia = tested on: MOLT-4 leukemia
A549 NSCLC = tested on: A549 NSCLC
EKVX NSCLC = tested on: EKVX NSCLC
MALME-3M melanoma = tested on: MALME-3M melanoma
SK-OV-3 ovarian = tested on: SK-OV-3 ovarian
SK-MEL-2 melanoma = tested on: SK-MEL-2 melanoma
CCRF-CEM leukemia = tested on: CCRF-CEM leukemia
HL-60(TB) leukemia = tested on: HL-60(TB) leukemia
UACC-62 melanoma = tested on: UACC-62 melanoma
COLO 205 colon = tested on: COLO 205 colon
NCI-H226 lung = tested on: NCI-H226 lung
RPMI-8226 leukemia = tested on: RPMI-8226 leukemia
SR leukemia = tested on: SR leukemia
MDA-MB-435 = tested on: MDA-MB-435
RXF 393 renal = tested on: RXF 393 renal
M14 melanoma = tested on: M14 melanoma
SW-620 colon = tested on: SW-620 colon
NCI-H23 lung = tested on: NCI-H23 lung
NCI/ADR-RES ovarian = tested on: NCI/ADR-RES ovarian
TK-10 renal = tested on: TK-10 renal
NCI-H522 lung = tested on: NCI-H522 lung
SF-539 CNS = tested on: SF-539 CNS
UO-31 renal = tested on: UO-31 renal
LOX IMVI melanoma = tested on: LOX IMVI melanoma
K-562 leukemia = tested on: K-562 leukemia
UACC-257 melanoma = tested on: UACC-257 melanoma
SF-268 CNS = tested on: SF-268 CNS
SK-MEL-5 melanoma = tested on: SK-MEL-5 melanoma
PC-3 prostate = tested on: PC-3 prostate
HS 578T breast = tested on: HS 578T breast
SNB-19 CNS = tested on: SNB-19 CNS
CAKI-1 renal = tested on: CAKI-1 renal
HCT-116 colon = tested on: HCT-116 colon
OVCAR-8 ovarian = tested on: OVCAR-8 ovarian
SN12C renal = tested on: SN12C renal
NCI-H460 lung = tested on: NCI-H460 lung
T-47D breast = tested on: T-47D breast
A498 renal = tested on: A498 renal
SF-295 CNS = tested on: SF-295 CNS
HOP-62 NSCLC = tested on: HOP-62 NSCLC
IGROV1 ovarian = tested on: IGROV1 ovarian
MCF7 breast = tested on: MCF7 breast
786-0 renal = tested on: 786-0 renal
MDA-N = tested on: MDA-N
OVCAR-5 ovarian = tested on: OVCAR-5 ovarian
U251 CNS = tested on: U251 CNS
HCC-2998 colon = tested on: HCC-2998 colon
SK-MEL-28 melanoma = tested on: SK-MEL-28 melanoma
MDA-MB-231 breast = tested on: MDA-MB-231 breast
OVCAR-3 ovarian = tested on: OVCAR-3 ovarian
HOP-92 NSCLC = tested on: HOP-92 NSCLC
ACHN renal = tested on: ACHN renal
SNB-75 CNS = tested on: SNB-75 CNS
KM12 colon = tested on: KM12 colon
HCT-15 colon = tested on: HCT-15 colon
BT-549 breast = tested on: BT-549 breast
OVCAR-4 ovarian = tested on: OVCAR-4 ovarian
HT29 colon = tested on: HT29 colon

O=[N+]([O-])c1cccc(-c2nc(-c3ccccc3)c(-c3ccccc3)[nH]2)c1
TGI (DU-145 prostate): > 100 µM
TGI (MOLT-4 leukemia): > 100 µM
TGI (A549 NSCLC): > 100 µM
TGI (EKVX NSCLC): > 100 µM
TGI (MALME-3M melanoma): > 100 µM
TGI (SK-OV-3 ovarian): > 100 µM
TGI (SK-MEL-2 melanoma): > 100 µM
TGI (CCRF-CEM leukemia): > 100 µM
TGI (HL-60(TB) leukemia): > 100 µM
TGI (UACC-62 melanoma): > 100 µM
TGI (COLO 205 colon): > 100 µM
TGI (NCI-H226 lung): > 100 µM
TGI (RPMI-8226 leukemia): > 100 µM
TGI (SR leukemia): > 100 µM
TGI (MDA-MB-435): > 100 µM
TGI (RXF 393 renal): > 100 µM
TGI (M14 melanoma): > 100 µM
TGI (SW-620 colon): > 100 µM
TGI (NCI-H23 lung): > 100 µM
TGI (NCI/ADR-RES ovarian): > 100 µM
TGI (TK-10 renal): > 100 µM
TGI (NCI-H522 lung): > 100 µM
TGI (SF-539 CNS): > 100 µM
TGI (UO-31 renal): > 100 µM
TGI (LOX IMVI melanoma): > 100 µM
TGI (K-562 leukemia): > 100 µM
TGI (UACC-257 melanoma): > 100 µM
TGI (SF-268 CNS): > 100 µM
TGI (SK-MEL-5 melanoma): > 100 µM
TGI (PC-3 prostate): > 100 µM
TGI (HS 578T breast): > 100 µM
TGI (SNB-19 CNS): > 100 µM
TGI (CAKI-1 renal): > 100 µM
TGI (HCT-116 colon): > 100 µM
TGI (OVCAR-8 ovarian): > 100 µM
TGI (SN12C renal): > 100 µM
TGI (NCI-H460 lung): > 100 µM
TGI (T-47D breast): > 100 µM
TGI (A498 renal): > 100 µM
TGI (SF-295 CNS): > 100 µM
TGI (HOP-62 NSCLC): > 100 µM
TGI (IGROV1 ovarian): > 100 µM
TGI (MCF7 breast): > 100 µM
TGI (786-0 renal): > 100 µM
TGI (MDA-N): > 100 µM
TGI (OVCAR-5 ovarian): > 100 µM
TGI (U251 CNS): > 100 µM
TGI (HCC-2998 colon): > 100 µM
TGI (SK-MEL-28 melanoma): > 100 µM
TGI (MDA-MB-231 breast): > 100 µM
TGI (OVCAR-3 ovarian): > 100 µM

CCN(CC)CCCNC(=O)c1cc2cc(NC(=O)c3cc4cc([N+](=O)[O-])ccc4[nH]3)ccc2[nH]1
TGI (HOP-92 NSCLC): > 100 µM
TGI (DU-145 prostate): > 100 µM
TGI (A549 NSCLC): > 100 µM
TGI (EKVX NSCLC): > 100 µM
TGI (SK-OV-3 ovarian): > 100 µM
TGI (SK-MEL-2 melanoma): > 100 µM
TGI (UACC-62 melanoma): 96.3 µM
TGI (COLO 205 colon): > 100 µM
TGI (NCI-H226 lung): > 100 µM
TGI (ACHN renal): > 100 µM
TGI (RPMI-8226 leukemia): > 100 µM
TGI (SR leukemia): > 100 µM
TGI (MDA-MB-435): > 100 µM
TGI (RXF 393 renal): > 100 µM
TGI (M14 melanoma): > 100 µM
TGI (SW-620 colon): > 100 µM
TGI (NCI-H23 lung): > 100 µM
TGI (NCI/ADR-RES ovarian): > 100 µM
TGI (TK-10 renal): > 100 µM
TGI (SF-539 CNS): > 100 µM
TGI (UO-31 renal): > 100 µM
TGI (K-562 leukemia): > 100 µM
TGI (UACC-257 melanoma): 76.9 µM
TGI (SNB-75 CNS): > 100 µM
TGI (SF-268 CNS): > 100 µM
TGI (SK-MEL-5 melanoma): > 100 µM
TGI (PC-3 prostate): > 100 µM
TGI (KM12 colon): > 100 µM
TGI (SNB-19 CNS): > 100 µM
TGI (CAKI-1 renal): > 100 µM
TGI (HCT-15 colon): > 100 µM
TGI (HCT-116 colon): > 100 µM
TGI (OVCAR-8 ovarian): > 100 µM
TGI (BT-549 breast): > 100 µM
TGI (SN12C renal): > 100 µM
TGI (OVCAR-4 ovarian): > 100 µM
TGI (NCI-H460 lung): > 100 µM
TGI (T-47D breast): > 100 µM
TGI (A498 renal): 75.7 µM
TGI (SF-295 CNS): > 100 µM
TGI (HOP-62 NSCLC): 93.4 µM
TGI (IGROV1 ovarian): > 100 µM
TGI (MCF7 breast): > 100 µM
TGI (786-0 renal): > 100 µM
TGI (MDA-N): > 100 µM
TGI (OVCAR-5 ovarian): > 100 µM
TGI (HCC-2998 colon): > 100 µM
TGI (SK-MEL-28 melanoma): > 100 µM
TGI (MDA-MB-231 breast): > 100 µM
TGI (OVCAR-3 ovarian): 75.8 µM
TGI (HT29 colon): > 100 µM
